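48-hour exposure; five concentrations; linearly interpolated endpoints. The concentration for full growth arrest is given as TGI.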
Legend:
Test in all cases: inhibition of tumour cell growth, NCI panel, 48 h
[1] = test system: MCF7 breast
[2] = test system: U251 CNS
[3] = test system: HCT-15 colon
[4] = test system: COLO 205 colon
[5] = test system: OVCAR-4 ovarian
[6] = test system: SNB-75 CNS
[7] = test system: NCI-H522 lung
[8] = test system: SK-OV-3 ovarian
[9] = test system: T-47D breast
[10] = test system: RPMI-8226 leukemia

| Compound | TGI [1] | TGI [2] | TGI [3] | TGI [4] | TGI [5] | TGI [6] | TGI [7] | TGI [8] | TGI [9] | TGI [10] |
| --- | --- | --- | --- | --- | --- | --- | --- | --- | --- | --- |
| COc1ccc(CNc2nc(NCc3ccc(OC)c(OC)c3)nc(NC3CCCCC3)n2)cc1 | > 100 µM | > 100 µM | 5.64 µM | 21 µM | > 100 µM | > 100 µM | 5.74 µM | > 100 µM | > 100 µM |  |
| N=c1n(C(=O)N2CCCC2)c2cc(Cl)ccc2n1C1=NCCN1 | > 100 µM | > 100 µM | > 100 µM | > 100 µM | > 100 µM |  | > 100 µM | > 100 µM | 98.2 µM | > 100 µM |
| C[n+]1c2ccccc2c(/C=N\NS(=O)(=O)c2ccc(O)c(C(=O)O)c2)c2ccccc21 |  | > 100 µM | > 100 µM |  | > 100 µM | > 100 µM | > 100 µM | > 100 µM |  | > 100 µM |
| Cc1cccc2c(=O)cc(-c3ccccc3)[nH]c12 |  | > 100 µM | > 100 µM | 51.5 µM | 35.7 µM | 9.26 µM |  |  |  | > 100 µM |
| CC1(C)N=C(/C(Cl)=[N+](/[O-])C(=O)c2ccc(F)cc2)C(C)(C)N1O | 44 µM |  | 26.9 µM | 38.2 µM | 32.2 µM | 32.7 µM |  | 47 µM | 58.5 µM | 38.1 µM |
| CC(C)CCCCCCCCCCCCC(=O)NCC(=O)NC1C(C)OC(Nc2ncnc3c2ncn3C)C(O)C1O (stereo unspecified) | > 100 µM | 11.3 µM | > 100 µM | > 100 µM | > 100 µM | 27.9 µM | 31.9 µM | > 94.6 µM |  | > 100 µM |
| O=C1CCC23CC(C=CC=C12)n1c(=O)n(-c2ccccc2)c(=O)n13 (stereo unspecified) | 32.3 µM | > 100 µM | > 100 µM | > 100 µM | > 100 µM | > 100 µM | > 100 µM | > 100 µM |  | > 100 µM |
| Cc1cn(C2CC(n3cc(Cn4cc(I)c(=O)[nH]c4=O)nn3)C(CO)O2)c(=O)[nH]c1=O (stereo unspecified) | > 100 µM | > 100 µM | > 100 µM | > 100 µM | > 100 µM | > 100 µM |  | > 100 µM | > 100 µM | > 100 µM |
| CC(=O)O[C@H]1C(=O)[C@]2(C)[C@@H](OC(=O)OCCC(O)CO)C[C@H]3OC[C@@]3(OC(C)=O)[C@H]2[C@H](OC(=O)c2ccccc2)[C@]2(O)C[C@H](OC(=O)[C@H](O)[C@@H](NC(=O)c3ccccc3)c3ccccc3)C(C)=C1C2(C)C (stereo partly specified) | > 35 µM | 18 µM | > 100 µM |  | > 94.3 µM | 0.158 µM | < 0.01 µM |  |  |  |
| CC(=O)NC1=C(NCCC(C)C)C(=O)c2ccccc2C1=O |  | > 50 µM | > 50 µM | > 50 µM | > 50 µM | > 50 µM | > 50 µM | > 50 µM |  |  |
| COc1cc(/C=C2\S/C(=N/Nc3nc(-c4ccc(Br)cc4)cs3)NC2=O)cc(OC)c1OC | > 100 µM | 16.3 µM | 36.1 µM | 71.3 µM | 85 µM | 77.2 µM | 30.2 µM | 34.7 µM |  |  |
| O=[N+]([O-])/C(C(Cl)=C(Cl)Cl)=C(\SCc1ccccc1)N1CCCCC1 | 32.2 µM | > 100 µM | 49.7 µM | 34.8 µM | 51.5 µM |  | 39 µM | > 100 µM | 51.1 µM | 92.9 µM |

From PubChem BioAssay (NCI)
